Reference: patent US5585382A, “Polycyclic and heterocyclic chromophores for bis-imide tumoricidals” (The DuPont Merck Pharmaceutical Company, priority 1995, dated 1996)
Converted amounts (≈) assume the structure as drawn. Read-outs that look alike come from different tables or passages of the source.

What was measured:
[1] = tested on: Murine leukemia L1210 cells; experiment: In vitro growth inhibition of L1210 cells (MTT, 72 hr); assay type: cell-based; conditions: Mus musculus, read-out: L1210 IC50
Summary of the method: (§1)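 Cells seeded on day 0 (1×10^3 L1210 or 8×10^2 Clone A per well), graded compound concentrations added on day 1, then 72 hr at 37 °C. MTT 4 h, formazan dissolved in acidic isopropanol, read at 570/630 nm; IC50 from curve fit as half-maximal inhibition of population doublings, eight replicates.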

[2] = tested on: Clone A human colon cancer cells; experiment: In vitro growth inhibition of Clone A cells (MTT, 72 hr); assay type: cell-based; conditions: read-out: Clone A IC50
Summary of the method: as §1

DLD-2 human colon tumor = experiment: In vivo human tumor xenograft DLD-2 in nude mice; conditions: for Tumor Growth Inhibition activity against DLD-2 (in words): NCI criteria
From the text: (§2) The DLD-2 human colon tumor and MX-1 human mammary carcinoma, were originally obtained from a surgically-removed primary colon carcinoma or breast tumor respectively. The human tumor lines were maintained by serial passage in athymic nude mice. The MX-1 human mammary carcinoma is an established tumor used by the NCI. The DLD-2 human colon tumor has been well characterized. (Dexter, D. L.; Spremulli, E. N.; Matook, G. M.; Diamond, I.; Calabresi, P. Cancer Research 1982, 42, 5010; Dexter, D. L.; Barbosa, J. A.; Calabresi, P. Cancer Research 1979, 39, 1020.)
(§3) The mice used in these experiments were outbred Swiss mice or CD-1 mice bearing the nude (nu/nu) gene. On Day 0, male and female mice weighing 22-30 g are inoculated with 0.2 mL of a 25% tumor mince. This mince is prepared by mincing fresh tumor tissue, grown subcutaneously in passage mice, in sterile physiological saline. Palpable tumors weighing approximately 50 mg appear in the mice within 7-10 days after inoculation. The mice are pair matched by tumor weight and sex into groups of ten each and the test compounds and vehicle control are administered intravenously (i.v.) once daily for nine consecutive days. A >20% decrease in body weight on Day 5 following compound administration is considered an indication of toxicity. Tumor measurements and body weights are recorded once a week. Fifteen to eighteen days after the initial injection the mice are weighed, sacrificed, and the tumors excised and weighed.
(§4) The efficacy of the test compounds is determined by the extent of tumor growth inhibition in treated versus vehicle-treated control mice. Initial tumor weights (mg) are calculated from the tumor dimensions (mm) obtained from caliper measurements, using the formula for a prolate ellipsoid (mg of tumor weight=(length×width^2)/2). Net tumor weights are calculated for each of the treated groups and the vehicle-treated control group by subtracting the initial tumor weight from the final tumor weight (Day 15-18). Results are expressed as a percentage decrease relative to the mean tumor weight for the control vehicle-treated group.
(§5) Tumor Growth Inhibition= [formula]
(§6) The evaluation criteria of the National Cancer Institute for activity in in vivo cancer models were used. Tumor growth inhibition of 58-89% against the various xenografts is considered moderate activity, and inhibition of ≥90% is considered good to excellent activity. Actual tumor regressions (IR=incomplete regression; FR=full regression) indicate excellent to outstanding activity.

[3] = tested on: MX-1 human mammary carcinoma; experiment: In vivo human tumor xenograft MX-1 in nude mice; conditions: for Tumor Growth Inhibition activity against MX-1 (in words): NCI criteria
From the text: as §2, §3, §4, §5, §6

[4] = Mus musculus, DLD2, iv, 216 h, read-out: DLD-2 percent tumor growth inhibition
[5] = i.v. once daily for nine days, nude mice
[6] = Mus musculus, iv, 216 h, i.v. once daily for nine days, nude mice, read-out: MX-1 percent tumor growth inhibition

| Structure (SMILES) | IC50 ([1]; L1210 cells, 72 hr, MTT) | IC50 ([2]; Clone A cells, 72 hr, MTT) | solubility (Solubility in water) | IC50 ([1]; L1210, 72 h) | IC50 ([2]; 72 h) | Tumor Growth Inhibition activity against DLD-2 (in words) (DLD-2 human colon tumor; [5]) | further results |
| --- | --- | --- | --- | --- | --- | --- | --- |
| CS(=O)(=O)O.O=C1c2cccc3c2c(cc2cccnc23)C(=O)N1CCCCNCCCN1C(=O)c2cccc3c2c(cc2cccnc23)C1=O [Example 1, 4-[3-(5-Azaphenanthrene-1,10-dicarboximido)propylamino]-1-(5-azaphenanthrene-1,10-dicarboximido) butane Hydromethanesulfonate] | 0.134 µg/mL | 0.06 µg/mL | 2300 µg/mL | – | – | – | inhibition in vivo at 25 mg/kg (DLD-2 human colon tumor; Mus musculus, DLD2, iv, 216 h, 25 mg/kg, i.v. once daily for nine days, nude mice, read-out: DLD-2 percent tumor growth inhibition): 16% |
| O=C1c2cc([N+](=O)[O-])cc3c2c(cc2cccnc23)C(=O)N1CCNCCN1C(=O)c2cc([N+](=O)[O-])cc3c2c(cc2cccnc23)C1=O [Example 2, 2-[3-(3-Nitro-5-azaphenanthrene-1,10-dicarboximido)ethylamino]-1-(3-nitro-5-azaphenanthrene-1, 10-dicarboximido)ethane Hydromethanesulfonate] | 0.02 µg/mL | 0.044 µg/mL | 10 µg/mL | – | – | – | inhibition in vivo at 12.5 mg/kg (DLD-2 human colon tumor; Mus musculus, DLD2, iv, 216 h, 12.5 mg/kg, i.v. once daily for nine days, nude mice, read-out: DLD-2 percent tumor growth inhibition): 0% |
| CS(=O)(=O)O.O=C1c2cc([N+](=O)[O-])cc3c2c(cc2cccnc23)C(=O)N1CCCNCCN1C(=O)c2cc([N+](=O)[O-])cc3c2c(cc2cccnc23)C1=O [Example 3, 3-[2-(3-Nitro-5-azaphenanthrene-1,10-dicarboximido)ethylamino]-1-(3-nitro-5-azaphenanthrene-1, 10-dicarboximido) propane Hydromethanesulfonate] | – | – | 80 µg/mL | 0.006 µg/mL | 0.004 µg/mL | moderate to excellent | inhibition in vivo at 20 mg/kg (DLD-2 human colon tumor; [4]): 92% |
| CS(=O)(=O)O.O=C1c2cc([N+](=O)[O-])cc3c2c(cc2cccnc23)C(=O)N1CCCNCCCN1C(=O)c2cc([N+](=O)[O-])cc3c2c(cc2cccnc23)C1=O [Example 4, 3-[3-(3-Nitro-5-azaphenanthrene-1,10-dicarboximido)propylamino]-1-(3-nitro-5-azaphenanthrene-1, 10-dicarboximido)propane Hydromethanesulfonate] | – | – | 450 µg/mL | 0.011 µg/mL | 0.005 µg/mL | – | inhibition in vivo at 10 mg/kg (DLD-2 human colon tumor; [4]): 57% |
| CS(=O)(=O)O.O=C1c2cc([N+](=O)[O-])cc3c2c(cc2cccnc23)C(=O)N1CCCCNCCCN1C(=O)c2cc([N+](=O)[O-])cc3c2c(cc2cccnc23)C1=O [Example 5, 4-[3-(3-Nitro-5-azaphenanthrene-1, 10-dicarboximido)propylamino]-1-(3-nitro-5-azaphenanthrene-1, 10-dicarboximido)butane Hydromethanesulfonate] | – | – | 60 µg/mL | 0.006 µg/mL | 0.013 µg/mL | moderate to excellent | inhibition in vivo at 10 mg/kg (DLD-2 human colon tumor; [4]): 82% |
| CS(=O)(=O)O.CS(=O)(=O)O.C[C@@H](CNCCNC[C@H](C)N1C(=O)c2cc([N+](=O)[O-])cc3c2c(cc2cccnc23)C1=O)N1C(=O)c2cc([N+](=O)[O-])cc3c2c(cc2cccnc23)C1=O [Example 7, (S,S)-1,2-bis-[2-(3-Nitro-5-azaphenanthrene-1,10-dicarboximido)propylamino]ethane Dihydromethanesulfonate] | – | – | 680 µg/mL | 0.048 µg/mL | 0.028 µg/mL | moderate to excellent | inhibition in vivo at 12.5 mg/kg (DLD-2 human colon tumor; [4]): 83% |
| CS(=O)(=O)O.O=C1c2cccc3c2c(cc2ncccc23)C(=O)N1CCCCNCCCN1C(=O)c2cccc3c2c(cc2ncccc23)C1=O [Example 17, 4-[3-(8-Azaphenanthrene-1,10-dicarboximido)propylamino]-1-(8-azaphenanthrene-1,10-dicarboximido) butane Hydromethanesulfonate] | 0.001 µg/mL | 0.001 µg/mL | – | – | – | moderate to excellent | inhibition in vivo at 6.2 mg/kg (DLD-2 human colon tumor; Mus musculus, DLD2, iv, 216 h, 6.2 mg/kg, i.v. once daily for nine days, nude mice, read-out: DLD-2 percent tumor growth inhibition): 59% |
| CS(=O)(=O)O.O=C1c2cc([N+](=O)[O-])cc3c2c(cc2ncccc23)C(=O)N1CCCCNCCCN1C(=O)c2cc([N+](=O)[O-])cc3c2c(cc2ncccc23)C1=O [Example 18, 4-[3-(3-Nitro-8-azaphenanthrene-1,10-dicarboximido)propylamino]-1-(3-nitro-8-azaphenanthrene-1, 10-dicarboximido)butane Hydromethanesulfonate] | – | – | 20 µg/mL | 0.001 µg/mL | 0.007 µg/mL | moderate to excellent | inhibition in vivo at 12.5 mg/kg (DLD-2 human colon tumor; [4]): 84% |
| CS(=O)(=O)O.CS(=O)(=O)O.O=C1c2cc([N+](=O)[O-])cc3c2c(cc2ncccc23)C(=O)N1CCNCCNCCN1C(=O)c2cc([N+](=O)[O-])cc3c2c(cc2ncccc23)C1=O [Example 19, 1,2-bis-[2-(3-Nitro-8-azaphenanthrene-1,10-dicarboximido)ethylamino]ethane Dihydromethanesulfonate] | – | – | 950 µg/mL | 0.013 µg/mL | 0.009 µg/mL | – | inhibition in vivo at 6 mg/kg ([3]; Mus musculus, iv, 216 h, read-out: MX-1 percent tumor growth inhibition): 84%; Tumor Growth Inhibition activity against MX-1 (in words) [3, 5]: moderate to excellent |
| Cc1cnc2c(c1)cc1c3c(cc([N+](=O)[O-])cc32)C(=O)N(CCCNCCN2C(=O)c3cc([N+](=O)[O-])cc4c3c(cc3cc(C)cnc34)C2=O)C1=O [Example 22] | 0.02 µg/mL (≈ 0.0287 µM) | 0.003 µg/mL (≈ 0.0043 µM) | 30 µg/mL (≈ 43 µM) | – | – | – | inhibition in vivo at 25 mg/kg [3, 6]: 0% |
| Cc1cnc2c(c1)cc1c3c(cc([N+](=O)[O-])cc32)C(=O)N(CCNCCNCCN2C(=O)c3cc([N+](=O)[O-])cc4c3c(cc3cc(C)cnc34)C2=O)C1=O [Example 23] | 0.042 µg/mL (≈ 0.0578 µM) | 0.043 µg/mL (≈ 0.0592 µM) | 120 µg/mL (≈ 165 µM) | – | – | – | inhibition in vivo at 25 mg/kg [3, 6]: 0% |
| CS(=O)(=O)O.O=C1c2ccccc2C(=O)c2c1cc1c3c(cccc23)C(=O)N(CCCCNCCCN2C(=O)c3cccc4c5c(cc(c34)C2=O)C(=O)c2ccccc2C5=O)C1=O [Example 100, 4-[3-(7,12-Dihydro-7,12-dioxobenz[a]anthracene-4,5-dicarboximido)propylamino]-1-(7,12-dihydro-7,12-dioxobenz[a]anthracene-4,5-dicarboximido)butane Hydromethanesulfonate] | 0.014 µg/mL | 0.07 µg/mL | 160 µg/mL | – | – | – | inhibition in vivo at 20 mg/kg ([3]; Mus musculus, iv, 216 h, 20 mg/kg, i.v. once daily for nine days, nude mice, read-out: MX-1 percent tumor growth inhibition): 24% |
| CS(=O)(=O)O.CS(=O)(=O)O.Cc1cnc2c(c1)cc1c3c(cc([N+](=O)[O-])cc32)C(=O)N([C@H](C)CNCCNC[C@@H](C)N2C(=O)c3cccc4cc([N+](=O)[O-])cc(c34)C2=O)C1=O [Example 117, (R,R)-1-[2-(3-Nitro-7-methyl-5-azaphenanthrene-1, 10-dicarboximido)propylamino]-2-[2-(3-nitronaphthalene-1,8-dicarboximido)propylamino]ethane Dihydromethanesulfonate] | – | – | 8700 µg/mL | 0.036 µg/mL | 0.002 µg/mL | – | responders at 6 mg/kg ([3]; Mus musculus, iv, 216 h, read-out: MX-1 tumor regressions, IR=incomplete regression): 100%; Tumor Growth Inhibition activity against MX-1 (in words) [3, 5]: moderate to excellent |
| CS(=O)(=O)O.CS(=O)(=O)O.Cc1nc2cc3c4c(cccc4c2[nH]1)C(=O)N(CCCNCCCCN1C(=O)c2cccc4cc([N+](=O)[O-])cc(c24)C1=O)C3=O [Example 140, 4-[3-(2-Methyl-1H-naphth[1,2-d]imidazole-5,6-dicarboximido)propylamino]-1-(3-nitronaphthalene-1,8-dicarboximido)butane Dihydromethanesulfonate] | 0.425 µg/mL | 0.101 µg/mL | 9000 µg/mL | – | – | – | inhibition in vivo at 50 mg/kg (DLD-2 human colon tumor; Mus musculus, DLD2, iv, 216 h, 50 mg/kg, i.v. once daily for nine days, nude mice, read-out: DLD-2 percent tumor growth inhibition): 0% |
